Experimental data from patent publication US20130096145A1, “Use of 1H-quinazoline-2,4-diones” (Novartis AG, priority 2010, published 2013).

Experiments:
OF1 mice = assay: Murine maximal electroshock test (MES Test); type: in vivo; details: for MES-Test (1 h, po) protection @50: percentage of protected mice (5 per condition) @50, p.o.; for MES-Test (1 h, po) protection @25: percentage of protected mice (5 per condition) @25, p.o.
Description: (§1) Compounds of the invention were tested in OF1 mice using the maximal electroshock test (MES Test) described in detail by Schmutz et al., Naunyn-Schmiedeberg's Arch Pharmacol 1990, 342, 61-66. Briefly, generalized tonic-clonic convulsions of the hind extremities were induced by passing electrical current through temporal electrodes (50 Hz, 18 mA, 0.2s). […] 30 mg/kg carbamazepine was used as a positive control; mice were classified as protected by a compound if the duration of the seizure lasted only 3 second or less. Five mice were used for each treatment condition and the percentage of protected mice was used as readout (i.e. a compound could give 0%, 20%, 40%, 60%, 80% or 100% protection). Compounds of the invention were given at a dose of 50 mg/kg, p.o., 1 hour prior to induction of convulsions (i.e. “pre-treatment time -1 h”). ED50 values (ED: effective dose) were calculated using GraphPad Prism, v4.02. 15 s after shock administration, mouse blood was collected for determination of compounds' blood exposure.

mouse = assay: Oral bioavailability: audiogenic mouse test and/or MES test; type: in vivo; details: oral administration
Description: The oral bioavailability was tested using the audiogenic mouse test (Audiogenic seizures, R. L. Collins; Chapter 14, pages: 347-372. In: Experimental Models of Epilepsy; By: Pupura, Penry, Tower, Woodbury, Walter, Raven Press, New York, 1972. Standard Book Number: 0-911216-26-X) and/or the MES test.
as §1

SMILES	MES-Test (1 h, po) protection @50 (OF1 mice; 1 h) [% @50]	In vivo orally active (mouse)	further results
Cn1nncc1-c1cc2c(=O)n(NS(C)(=O)=O)c(=O)[nH]c2cc1C(F)(F)F [Comparative, N-(6-(1-methyl-1H-1,2,3-triazol-5-yl)-2,4-dioxo-7-trifluoromethyl-1,4-dihydro-2H-quinazolin-3-yl]-methanesulfonamide, reference compound]	0	No	–
CC(C)c1cc2[nH]c(=O)n(NS(C)(=O)=O)c(=O)c2cc1-c1ccnn1C(C)C [Compound C-8, N-[7-Isopropyl-6-(2-isopropyl-2H-pyrazol-3-yl)-2,4-dioxo-1,4-dihydro-2H-quinazolin-3-yl]-methanesulfonamide]	40	yes	–
CS(=O)(=O)Nn1c(=O)[nH]c2cc(C(F)(F)F)c(C3CCOC3)cc2c1=O (stereo not drawn) [Compound B-3, N-[2,4-Dioxo-6-(tetrahydro-furan-3-yl)-7-trifluoromethyl-1,4-dihydro-2H-quinazolin-3-yl]-methanesulfonamide]	–	Yes	MES-Test (1 h, po) protection @25 (OF1 mice; 1 h): 20% @25^3
CCc1cc2[nH]c(=O)n(NS(C)(=O)=O)c(=O)c2cc1-c1ccnn1C(C)C [Compound C-6, N-[7-Ethyl-6-(2-isopropyl-2H-pyrazol-3-yl)-2,4-dioxo-1,4-dihydro-2H-quinazolin-3-yl]-methanesulfonamide]	20	yes	–
Cn1nccc1-c1cc2c(=O)n(NS(C)(=O)=O)c(=O)[nH]c2cc1C(C)(F)F [Compound C-15, N-[7-(1,1-difluoro-ethyl)-6-(2-methyl-2H-pyrazol-3-yl)-2,4-dioxo-1,4-dihydro-2H-quinazolin-3-yl]-methanesulfonamide]	–	Yes	MES-Test (1 h, po) protection @20 (OF1 mice; percentage of protected mice (5 per condition) @20, p.o., 1 h): 80% @20
CC(C)n1nccc1-c1cc2c(=O)n(NS(C)(=O)=O)c(=O)[nH]c2cc1CF [Compound C-3, N-[7-Fluoromethyl-6-(2-isopropyl-2H-pyrazol-3-yl)-2,4-dioxo-1,4-dihydro-2H-quinazolin-3-yl]-methanesulfonamide]	–	Yes	ED50 (OF1 mice; Mus musculus, po, pre-treatment time 1 h, protected = seizure duration 3 s or less): 13.5 mg/kg
CS(=O)(=O)Nn1c(=O)[nH]c2cc(C(F)(F)F)c(C3CCCO3)cc2c1=O [B-2 (S), N-[2,4-Dioxo-6-(tetrahydro-furan-2-yl)-7-trifluoromethyl-1,4-dihydro-2H-quinazolin-3-yl]-methanesulfonamide]	–	–	MES-Test (1 h, po) ED50 (OF1 mice; p.o., pre-treatment time 1 h, protected = seizure duration 3 s or less): 33.2 mg/kg
COCCn1nccc1-c1cc2c(=O)n(NS(C)(=O)=O)c(=O)[nH]c2cc1C(C)C [Compound C-1, N-{7-Isopropyl-6-[2-(2-methoxy-ethyl)-2H-pyrazol-3-yl]-2,4-dioxo-1,4-dihydro-2H-quinazolin-3-yl}-methanesulfonamide]	–	yes	MES-Test (1 h, po) protection @25 (OF1 mice; 1 h): 40% @25
